Consider five compounds from paper PMC5071857, “A unique peptide deformylase platform to rationally design and challenge novel active compounds” (Scientific Reports, 2016).

The target in assay [1] is T1, SaPDF (Streptococcus agalactiae serotype III, UniProt Q8E378, S2A).
T1 construct: the recombinant protein contains all residues of the 204 amino acids mature protein; made in house; host or cells: E. coli Rosetta 2(DE3)pLysS
Nature of the assay: biochemical. To be noted: for Ki: SaPDF KI, no pre-incubation, assay initiated by addition of enzyme, 40 nM SaPDF, 37 °C; for SaPDF KI/KI*app: enhancement potency (slow tight-binding). As for the experimental part: (§1) Enzymatic activity was measured by a spectrophotometric assay where peptide deformylase activity is coupled to that of formate dehydrogenase. The formate released by the deformylation reaction is used by FDH to convert NAD in NADH, the production of which being measured over time at 340 nm and controlled temperature (37 °C). The 200 μL reaction mixture contained 50 mM HEPES-NaOH pH7.5, 12 mM NAD^+, 4.5 U/mL FDH, 1 mM NiCl2 and PDF enzyme (either 40 nM SaPDF or 10 nM EcPDF or 100 nM AtPDF1B) previously diluted in presence of 0.1 mg/mL BSA. The reaction was started by addition of 1–6 mM Fo-Met-Ala-Ser. Kinetics parameters (kcat, Km) were derived from iterative non-linear least square fits using the Michaelis-menten equation based on the experimental data (Sigma-Plot, Kinetics module).
(§2) 1/KI*app is the slope of the v0/vi curve in function of compound concentration, where v0 and vi are the initial reaction rates in absence and presence of compound, respectively.
(§3) Determination of KI values was performed with a slightly modified protocol: reaction was started by addition of enzyme instead of Fo-Met-Ala-Ser, the latter being directly added to the mixture containing increasing concentrations of each compound. No pre-incubation of enzyme in presence of compound was done. 1/KI is the slope of the v0/vi curve in function of compound concentration, where v0 and vi are the initial reaction rates in absence and presence of compound respectively.

Assay [2] concerns the target T2, EcPDF (Escherichia coli, UniProt P0A6K3).
T2 construct: made in house
Put plainly: PDF inhibition, formate dehydrogenase-coupled spectrophotometric assay (EcPDF). The assay is classed as biochemical. To be noted: for Ki: 10 nM EcPDF; for EcPDF KI/KI*app: enhancement potency (slow tight-binding). As for the experimental part:
as §1, with “The” for “Enzymatic activity was measured by a spectrophotometric assay where peptide deformylase activity is coupled to that of formate dehydrogenase. The”
as §2, §3

Assay [3] addresses T3, AtPDF1B (Arabidopsis thaliana, UniProt Q9FUZ2).
T3 construct: made in house
T3 sequence (Q9FUZ2 83-273): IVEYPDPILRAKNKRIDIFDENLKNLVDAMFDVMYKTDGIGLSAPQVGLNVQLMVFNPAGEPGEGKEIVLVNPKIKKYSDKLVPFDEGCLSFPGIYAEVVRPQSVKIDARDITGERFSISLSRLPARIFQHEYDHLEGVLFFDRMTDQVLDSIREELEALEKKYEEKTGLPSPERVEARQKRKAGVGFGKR
Nature of the assay: PDF inhibition, formate dehydrogenase-coupled spectrophotometric assay (AtPDF1B). The class given is biochemical. To be noted: for Ki: PDFI pre-incubated with enzyme 10 min at 37 °C, started by 2 mM Fo-Met-Ala-Ser, read-out: AtPDF1B KI*app; for Ki / IC50: 100 nM AtPDF1B; for AtPDF1B KI/KI*app: enhancement potency (slow tight-binding); for IC50: 2 mM Fo-Met-Ala-Ser, 10 min pre-incubation at 37 °C. The protocol: as §1, §2, §3

The test system of assay [4] is E. coli AG100. Nature of the assay: MIC by microdilution, E. coli AG100. The class given is cell-based. To be noted: 18 h at 37 °C, average of three assays; for MIC: Escherichia coli, AG100, without PMBN; for MIC AG100: with PMBN at 1/5 of its MIC. The source says: (§4) Two E. coli strains, one B. subtilis strain, one S. aureus strain, one E. faecalis strain, one S. agalactiae strain and three Enterobacter aerogenes strains previously described were used. Briefly, AG100 was an E. coli wild type strain and AG100A its acrAB^- derivative. EA289 was a Kan^s derivative of an E. aerogenes multi-drug resistant (MDR) clinical isolate overexpressing AcrAB-TolC efflux pumps, and EA294 and EA298 its acrAB^- and tolC^- derivatives respectively. Strains were routinely grown at 37 °C on Luria-Bertani (LB) agar or in Mueller-Hinton II broth (MH), supplemented with kanamycine (50 μg.mL^−1) for AG100A, EA294 and EA298.
(§5) MIC values of antibiotics were determined by the microdilution method in liquid MH media in microplates in the absence or presence of chemosensitizers/modulators (e.g. PMBN, PAβN), as previously described. Permeabilization, blocking of efflux pumps, and isolates with different levels of porin or efflux expression were used to assess the involvement of the membrane barrier in antibiotic activity.
(§6) Susceptibilities were determined in 96-wells microplates with an inoculum of 2 × 10^5 cfu in 200 μL of MH broth containing two-fold serial dilutions of each antibiotics or compounds. Molecules were tested alone or in combination with other molecules in equimolar ratio. MICs were realized in the absence and in the presence of a membrane permeabilizer, the polymyxine B nonapeptide (PMBN) used at 51.2 mg/L (1/5 or 1/10 of its direct MIC previously determined). Actinonin and ciprofloxacin were used as internal antibiotic reference. […] Each test was systematically performed in triplicate. The average of three independent assays is presented in μg/mL in the respective tables.
(In broth dilution the organism is exposed to a series of concentrations in liquid medium.)

In assay [5] the test system is E. coli AG100A (AcrAB- derivative). Put plainly: MIC by microdilution, E. coli AG100A. The class given is cell-based. To be noted: for MIC: Escherichia coli, 18 h, read-out: MIC AG100A; for MIC AG100A: with PMBN at 1/5 of its MIC, 18 h at 37 °C, average of three assays.
From the text: as §4, §5, §6

Assay [6] has as its system S. aureus SA113. Nature of the assay: MIC, S. aureus SA113. The class given is cell-based. The following applies: Staphylococcus aureus.
From the text: as §4, §5, §6

Assay [7] deals with E. faecalis EFA 103.214. Nature of the assay: MIC, E. faecalis EFA 103.214. The class given is cell-based. To be noted: Enterococcus faecalis, EFA103.214, read-out: MIC E. faecalis EFA 103.214.
From the text: as §4, §5, §6

Assay [8] deals with T1, SaPDF. Nature of the assay: biochemical. To be noted: SaPDF KI*app, PDFI pre-incubated with enzyme 10 min at 37 °C, started by 2 mM Fo-Met-Ala-Ser; 40 nM SaPDF.
The target of assay [9] is T3, AtPDF1B. Nature of the assay: PDF inhibition, formate dehydrogenase-coupled spectrophotometric assay (AtPDF1B). The following applies: no pre-incubation, assay initiated by addition of enzyme; 100 nM AtPDF1B; 37 °C. The assay is classed as biochemical.
Assay [10] concerns E. aerogenes Ea289, MDR strain. Put plainly: MIC by microdilution, E. aerogenes Ea289. The class given is cell-based, Enterobacter aerogenes.
From the text: as §4, §5, §6

For assay [11], the system named is E. aerogenes Ea294, Ea289 derivative AcrAB-. Nature of the assay: MIC by microdilution, E. aerogenes Ea294. The assay is classed as cell-based, Enterobacter aerogenes.
From the text: as §4, §5, §6

Assay [12] has as its system E. aerogenes Ea298, Ea289 derivative tolC-. Put plainly: MIC by microdilution, E. aerogenes Ea298. The assay is classed as cell-based, Enterobacter aerogenes.
From the text: as §4, §5, §6

[13] abbreviates: EcPDF KI*app, PDFI pre-incubated with enzyme 10 min at 37 °C, started by 2 mM Fo-Met-Ala-Ser.
Setting [14] is: EcPDF KI, no pre-incubation, assay initiated by addition of enzyme, 37 °C.
Where [15] appears, read: +PMBN at 1/5 of its MIC, average of three assays.

Structures are written as SMILES. Like-named read-outs stand apart in the source and are kept apart here. Bounds are passed on as bounds.

T2 sequence (P0A6K3 whole entry): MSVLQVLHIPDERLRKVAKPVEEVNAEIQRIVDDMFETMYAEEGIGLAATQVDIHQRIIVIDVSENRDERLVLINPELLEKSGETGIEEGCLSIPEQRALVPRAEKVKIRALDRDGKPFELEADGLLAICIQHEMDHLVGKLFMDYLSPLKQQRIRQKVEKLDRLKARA
T1 sequence (Q8E378 whole entry S2A): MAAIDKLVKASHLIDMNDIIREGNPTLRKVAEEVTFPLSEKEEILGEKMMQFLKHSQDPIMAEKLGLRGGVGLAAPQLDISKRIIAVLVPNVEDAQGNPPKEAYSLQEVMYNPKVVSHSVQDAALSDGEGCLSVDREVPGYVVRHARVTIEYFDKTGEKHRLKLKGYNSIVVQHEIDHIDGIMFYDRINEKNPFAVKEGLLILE

`CCCCC(CC(=O)NO)c1nc(Cc2ccc(F)cc2)no1` (stereo not drawn) [AT002]: the results for the half-maximal inhibitory concentration (IC50) in [1] and in assay [2] were 3.5 ± 0.8 nM and 4 ± 1 nM, respectively. In addition, the Ki in assay [1] amounted to 13 ± 1 nM; in [2] (setting [13]) it was 5 ± 2 nM; in [2] (setting [14]), 31 ± 7 nM; in [3], 53 ± 3 nM; in assay [8] it was 4 ± 0.5 nM; in assay [9], 58 ± 4 nM. In addition, the “EcPDF KI/KI*app” value in [2] came to 6. Besides, the “AtPDF1B KI/KI*app” value in assay [3] came out at 1. Further, the MIC in assay [4], in assay [5], in assay [6] and in [7] was above 64 µg/mL in each case. Also, in [4], the “MIC AG100” value amounted to 64 µg/mL. Besides, in assay [5], the “MIC AG100A” value is 32 µg/mL.
On to `CCCCC(CC(=O)NO)c1nc(Cc2ccc(C(F)(F)F)cc2)no1` (stereo not drawn) [AT008], for which the IC50 in assay [1] was determined as 25 ± 2 nM; in assay [2] it was 14 ± 2 nM. Also, the Ki in [1] is 75 ± 4 nM; in [2] (setting [13]), 18 ± 3 nM; in assay [2] (setting [14]), 80 ± 10 nM; in assay [3], 666 ± 29 nM; in [8], 81 ± 5 nM; in assay [9], 909 ± 78 nM. Further, the “SaPDF KI/KI*app” value in assay [1] came out at 1. Besides, in [2], the “EcPDF KI/KI*app” value stood at 4. In addition, in [3], the “AtPDF1B KI/KI*app” value stood at 1. Further, the MIC in assay [4], in [5], in assay [6] and in [7] was above 64 µg/mL in each case. In addition, the “MIC AG100” value in assay [4] was above 64 µg/mL. Besides, the “MIC AG100A” value in assay [5] worked out at 16 µg/mL.
Regarding `CCCCC[C@H](CC(=O)NO)C(=O)N[C@H](C(=O)N1CCC[C@H]1CO)C(C)C` [Actinonin, actinonin, reference compound], the IC50 came to 3 ± 0.9 nM in assay [1] and 7.5 ± 1.8 nM in [3]. The Ki was determined as 64 ± 5 nM in assay [1], 3.5 ± 0.3 nM in [3], 1 ± 0.1 nM in [8] and 82 ± 10 nM in assay [9]. Further, the MIC in assay [4] is 128 µg/mL; in [5], 1 µg/mL; in [10] (Klebsiella aerogenes, 18 h, read-out: MIC Ea289) it was above 64 µg/mL; in assay [11] (Klebsiella aerogenes, 18 h, read-out: MIC Ea294), 64 µg/mL; in [12] (Klebsiella aerogenes, 18 h, read-out: MIC Ea298), 32 µg/mL. Also, the “MIC AG100” value in [4] is 4 µg/mL. In assay [5], the “MIC AG100A” value amounted to 0.25 µg/mL. Further, the “MIC Ea289” value in assay [10] (setting [15]) was determined as 32 µg/mL. Further, the “MIC Ea294” value in assay [11] (setting [15]) amounted to 4 µg/mL. For the same compound, the “MIC Ea298” value in [12] (setting [15]) came to 1 µg/mL.
In the case of `O=C(Cc1cn(Cc2ccccc2)c2ccc(Br)cc12)NO` [SMP195], the values for the IC50 in assay [1], in [2] and in assay [3] were 110 ± 10 nM, 17 ± 4 nM and 400 ± 33 nM, respectively. For the same compound, the Ki was found to be 285 ± 18 nM in [1]; 20 ± 3 nM in [2] (setting [13]); 29 ± 4 nM in [2] (setting [14]); 833 ± 53 nM in assay [3]; 250 ± 17 nM in assay [8]; 909 ± 118 nM in assay [9]. Further, the “SaPDF KI/KI*app” value in assay [1] was found to be 1. The “EcPDF KI/KI*app” value in [2] was found to be 1. The “AtPDF1B KI/KI*app” value in assay [3] was 1. For the same compound, the figures for the MIC in assay [6] and in assay [7] were 4 µg/mL and 16 µg/mL, respectively.
As to `O=C(Cn1cc(Cc2ccccc2)c2cc(Br)ccc21)NO` [SMP289], the figures for the IC50 in assay [1], in assay [2] and in assay [3] were 360 ± 21 nM, 480 ± 30 nM and 703 ± 47 nM, respectively. Besides, the Ki in assay [1] is 909 ± 64 nM; in [2] (setting [13]) it was 625 ± 75 nM; in assay [2] (setting [14]), 769 ± 30 nM; in assay [3], 1430 nM; in [8], 714 ± 72 nM; in assay [9], 1000 ± 78 nM. The “SaPDF KI/KI*app” value in [1] is recorded as 1. Further, the “EcPDF KI/KI*app” value in assay [2] was found to be 1. For the same compound, the “AtPDF1B KI/KI*app” value in assay [3] was determined as 1. Besides, the minimum inhibitory concentration (MIC) in assay [4] is above 64 µg/mL; in assay [5] it was above 64 µg/mL; in assay [6], 4 µg/mL; in [7] it was 16 µg/mL. For the same compound, the “MIC AG100” value in assay [4] was 8 µg/mL. In addition, the “MIC AG100A” value in [5] was 4 µg/mL.

As usually defined, the IC50 is the concentration at which inhibition is half-maximal. One may read the MIC as the lowest concentration found to suppress growth.
